{
  "source": "paper PMC11943016",
  "about": "“TBG096 Ameliorates Memory Deficiency in AD Mouse Model via Promoting Neurogenesis and Regulation of Hsc70/HK2/PKM2/LAMP2A Signaling Pathway” (International Journal of Molecular Sciences, 2025)",
  "key": {"HFD-induced AD mice [1]": {"tested_on": "HFD-induced AD mice", "experiment": "Immunofluorescence staining of brain tissue of HFD-induced AD mice", "assay_type": "in vivo", "text": "(§1) In experiments with the HFD-induced AD mouse model, a total of 60 Institute of Cancer Research (ICR) male mice aged 4 weeks from Zhejiang Academy of Medical Sciences (Hangzhou, China) were used for animal experiments (permit number: ZJU20230121). The animals were provided free access to a chow diet and water. […] The HFD and normal diet were alternated every two days to maintain freshness. Weekly measurements were taken for water intake, food intake, and body weight. In the eighteenth week, the mice underwent Y-maze and NOR tests. The Morris water maze test was conducted during the nineteenth week. After confirming the successful establishment of the AD model characterized by cognitive impairment, oral administration of treatments commenced. […] Each group had 10 mice.\nAt the end of animal experiments, three mice in each group were taken for heart perfusion with cold PBS and 4% paraformaldehyde. After that, the brains of mice were fixed with 4% paraformaldehyde for 24 h and gradually dehydrated with 15% and 30% sucrose solutions for 48 h, respectively. The fixed and embedded brain sample was placed in a cryostat and cut into 20 µm thick slices with a cryostat (Thermo Fisher, Waltham, MA, USA), and brain slices in the hippocampus and cortex were collected. Finally, the brain slices were placed in antifreeze (glycerol/ethylene/PBS = 3:3:4) and kept in a refrigerator at −30 °C until immunostaining. The brain slices were fixed on a glass slide and hydrated with PBS for 5 min. Then, blocking buffer was added to the brain slices and incubated at room temperature for 1 h. Brain slices were washed twice with PBS and incubated with anti-NeuN, anti-BrdU, anti-Iba1, anti-GFAP, anti-INOS, anti-APP, or anti-p-Tau at 4 °C for 24 h, respectively. Subsequently, the brain slices were incubated with secondary antibody (goat anti-rabbit IgG H&L (Alexa Fluor® 488) or rabbit anti-mouse IgG (Cy3 conjugate)) at room temperature for 2 h after washing with PBS three times. Finally, a cover glass was used to lightly cover the slices stained with DAPI. […] Biomarker proteins in the cerebral cortex and hippocampus were digitized by Image J software (National Institutes of Health, Bethesda, MD, USA)."}, "HFD-induced AD mice [2]": {"tested_on": "HFD-induced AD mice", "experiment": "Behavioral tests (Y-maze, NOR, MWM) in HFD-induced AD mice", "assay_type": "in vivo", "text": "as §1\nThe Y-maze test is used to evaluate working memory, and the process was referenced in another report. In brief, the Y-maze consists of three black plastic arms (A, B, and C) with the same length (30 cm), width (10 cm), height (15 cm), and 120° relative to adjacent arms. Each mouse is placed facing the wall of arm A and allowed to explore the maze freely for 5 min. The behavior of mice is recorded with a video recorder, and the data are stored in ANY-MAZE software version 6.35 (Stoelting, Chicago, IL, USA). The total number of entries made by the mice into each arm—considered as either whole or half-body entries—is recorded. An alternation is defined as a mouse moving through all three arms without returning to the initial arm on the third visit. Alternation: number of alternations/(number of arm entries − 2) × 100%.\nThe NOR test is utilized to assess the working memory capabilities of mice. The NOR apparatus consists of an open, black plastic box, two identical objects, and one novel object. The activity of the mice within the open field is captured and recorded using a video recorder, with data subsequently stored in ANY-MAZE software. The test is conducted over a span of two days, incorporating habituation, training, and testing stages. During the habituation phase, the mice are placed in the box devoid of any objects, allowing them to explore freely for a duration of five min. Following a 24 h interval, the NOR test is administered, which consists of both the training and testing phases. In the training phase, each mouse is positioned in the central area of the box, where two identical objects are placed equidistant from the mouse. Each training session lasts for five minutes. After a one-hour break, one of the identical objects is replaced with a new, distinct object, and the exploration duration for each mouse is recorded. Exploration is defined by the time a mouse spends touching or sniffing an object. The exploration times during both the training and testing phases are documented via video recording, and the data are organized within ANY-MAZE software. The object recognition index was defined as follows: (time spent on the new object)/(time spent on the old object + time spent on the new object) × 100%. The data are calculated by ANY-MAZE software.\nThe MWM test is used to measure spatial memory and long-term memory. The whole MWM equipment includes a circular water tank (diameter 1.5 m, depth 50 cm) with warm water (22 ± 1 °C) 35 cm deep, a platform (diameter 14 cm, immersed 1 cm in water), a camera, and a computer for data analysis. The MWM test is conducted over five 5 days: 4 days for training and 1 day for testing. The pool is divided into four quadrants, and at least three quadrants are tested at a time. In the training stage, the mouse is placed on the wall of one of the four quadrants and allowed to swim and find the platform hidden underwater within 120 s. If the mouse cannot find the platform, the experimenter will guide it and let it stay on the platform for 10 s. The experiment lasts for 4 days. On the fifth day of the test phase, the platform is removed, and each mouse is placed in a similar starting position and allowed to move freely for 90 s. […]"}, "gut microbiota": {"tested_on": "gut microbiota", "experiment": "Gut microbiota analysis in HFD-induced AD mice", "assay_type": "in vivo", "settings": "Met 140 mg/kg", "text": "as §1"}, "PC12 cells [3]": {"tested_on": "PC12 cells", "experiment": "EdU cell proliferation in PC12 cells (inhibitor experiment)", "assay_type": "cell-based", "settings": "VER155008 3 µM, NH4Cl 250 µM", "protocol": "In the inhibitor experiment of EdU cell proliferation activity, PC12 cells were seeded into each well of a 24-well plate as above for 24 h. Then, the medium in each well was replaced with 500 μL of serum-free […] containing VER155008 (inhibitor of Hsc70, 3 µM), or NH4Cl (inhibitor of lysosome, 250 µM) for 30 min according to the literature, and 500 μL of serum-free DMEM containing different samples was added and cultured for 24 h, respectively. After that, PC12 cells were treated with EdU for 2 h according to the operation steps of the BeyoClick™ EdU-488 cell proliferation detection kit (#C0071S, Beyotime Biotechnology, Shanghai, China). After cell labeling, the supernatant was removed. Then, PC12 cells were fixed, washed, and blocked, and the click reaction solution was added at room temperature for 30 min. After that, DAPI staining was performed for 10 min. Finally, PC12 cells were detected by fluorescence microscope (Olympus IX53, Tokyo, Japan)."}, "[4]": {"tested_on": "Hsc70, LAMP2A, APP, PKM2, and HK2 proteins", "experiment": "Western blot of CMA proteins in PC12 cells (inhibitor experiment)", "assay_type": "cell-based", "settings": "TBG096 1 µM, VER155008 3 µM, 4 h, vs control", "protocol": "(§2) In the inhibitor experiment of NGF-mimic activity, approximately 5 × 10^4 PC12 cells were seeded into each well of a 24-well plate and incubated for 24 h. After that, the medium in each well was replaced with 500 μL of serum-free DMEM or the serum-free DMEM containing VER155008, the inhibitor of Hsc70 protein, incubated in a CO2 incubator for 30 min. Subsequently, 500 μL of serum-free DMEM containing different samples was added and cultured, respectively. The PC12 cells with neurite outgrowth were recorded after 48 h. For the Western blot analysis, the experiment included five groups, namely the control (C) group, the NGF (40 ng/mL) group, the TBG096 (1 µM) group, the VER155008 (3 µM) group, and the VER155008 (3 µM) + TBG096 (1 µM) group. Afterwards, approximately 2 × 10^6 cells per dish were seeded into ten 6 cm Petri dishes with 5 mL of DMEM medium and incubated for 24 h. After giving different treatments with samples, the cells continued to culture for 4 h. Protein extraction was conducted to prepare for the subsequent Western blot analysis.\nApproximately 50 mg of cerebral cortex from brain tissues was homogenized in RIPA lysis buffer containing 1% protease inhibitor and 1% phosphatase inhibitor. Then, the sample was centrifuged at 12,000 rpm at 4 °C for 10 min, and the supernatant was transferred to a new tube. Protein concentrations were determined using the BCA kit, and 30 µg of protein from each sample was denatured by heating in water at 100 °C for 10 min. Subsequently, approximately 30 µg of protein from each sample was loaded into each well. After conducting gel electrophoresis at 80 V for 15 min and then at 120 V for 60 min, the proteins were transferred to the polyvinylidene fluoride (PVDF) membrane for 90 min. Then, the PVDF membrane was blocked with 5% skimmed milk at room temperature for 60 min. The membrane was incubated with a diluted primary antibody at 4 °C overnight. After washing the membrane three times with TBST buffer (1× TBS buffer containing 0.05% (v/v) tween 20), it was incubated with the secondary antibody for 1 h at room temperature. Finally, the strip was developed using chemiluminescence ECL reagent, and the blot density was quantified with ImageJ (National Institutes of Health, Bethesda, MD, USA)."}, "PC12 cells [5]": {"tested_on": "PC12 cells", "experiment": "NGF-mimic activity: neurite outgrowth in PC12 cells", "assay_type": "cell-based", "settings": "0.3, 1, and 3 µM, 48 h", "protocol": "The neurogenic activity of samples was evaluated according to the methods described in our previous study. Briefly, approximately 5 × 10^4 cells were seeded in each well of a 24-well microplate and were cultured under a humidified atmosphere with 5% CO2 at 37 °C for 24 h. Then, the medium in each well was replaced with 1 mL of serum-free DMEM containing 40 ng/mL NGF as a positive control, 0.5% DMSO as a negative control, and the test sample after 24 h, respectively. About 100–200 cells of each well were counted from a randomly selected area and repeated thrice after 48 h. A cell-bearing neurite outgrowth longer than the diameter of the cell body was identified as a positive cell. The activity was presented as the percentage of positive cells in the selected area.\nas §2"}, "PC12 cells [6]": {"tested_on": "PC12 cells", "experiment": "MTT assay, cytotoxicity in PC12 cells", "assay_type": "cell-based", "settings": "10 µM", "protocol": "PC12 cells were firstly inoculated into a 24-well plate and cultured for 24 h. Following this, samples at different doses were added and cultured for 24 h. Subsequently, the 0.5 mL serum-free medium containing MTT (0.2 mg/mL) of each well was used to replace the original medium and incubated for 2 h. After removing the solution, the purple crystal was dissolved in 200 μL of DMSO, and the absorbance was measured at 570 nm. The cell survival rate for each group was calculated based on the control group."}, "[7]": {"settings": "cited from earlier work"}},
  "data": [
    {"compound": "CN(C)C(=N)N=C(N)N", "note": "[Met, Metformin, reference compound]", "values": [
      {"measurement": "APP and phosphorylation Tau protein in the hippocampus", "setting": "HFD-induced AD mice [1]; immunofluorescence", "result": "reduction"},
      {"measurement": "number of mature neurons (NeuN) in the cerebral cortex", "setting": "HFD-induced AD mice [1]; vs HFD-only group", "result": "increased numbers of mature neurons"},
      {"measurement": "number of arm entries, Y-maze test", "setting": "HFD-induced AD mice [2]; TBG096 0.1, 5, 20 mg/kg, Met 140 mg/kg, 54 days", "result": "No significant differences"},
      {"measurement": "escape latency, MWM training phase", "setting": "HFD-induced AD mice [2]; fourth day, Met 140 mg/kg and all doses of TBG096", "result": "markedly reduced"},
      {"measurement": "number of platform crossings, MWM test phase", "setting": "HFD-induced AD mice [2]; vs HFD-only group", "result": "increased significantly"},
      {"measurement": "abundance of Firmicutes (decreased by HFD) and Bacteroidota (increased by HFD)", "setting": "gut microbiota; TBG096 20 mg/kg", "result": "reversed"},
      {"measurement": "abundance of Ligilactobacillus", "setting": "gut microbiota; TBG096 5 and 20 mg/kg", "result": "improved"}
    ]},
    {"compound": "Cl.N", "note": "[NH4Cl]", "values": [
      {"measurement": "effect of inhibitor on the EdU cell proliferation activity of TBG096", "setting": "PC12 cells [3]", "result": "reverse the activity"}
    ]},
    {"compound": "N#Cc1ccc(COC[C@H]2O[C@@H](n3c(NCc4ccc(Cl)c(Cl)c4)nc4c(N)ncnc43)[C@H](O)[C@@H]2O)cc1", "note": "[VER155008, reference compound]", "values": [
      {"measurement": "effect of inhibitor on the EdU cell proliferation activity of TBG096", "setting": "PC12 cells [3]", "result": "reverse the activity"},
      {"measurement": "APP protein expression", "setting": "[4]", "result": "significantly increased"},
      {"measurement": "Hsc70 protein level", "setting": "[4]", "result": "significantly decreased"},
      {"measurement": "LAMP2A protein level", "setting": "[4]", "result": "significantly increased"},
      {"measurement": "PKM2 protein expression", "setting": "[4]", "result": "significantly increased"}
    ]},
    {"compound": "O=C(SCCCCCCCCSCCCC(F)(F)F)c1cccc(O)c1O", "note": "[compound 4]", "values": [
      {"measurement": "percentage of PC12 cells exhibiting neurite growth", "setting": "PC12 cells [5]", "result": "superior activity"},
      {"measurement": "toxicity in PC12 cells (MTT)", "setting": "PC12 cells [6]", "result": "some level of toxicity"}
    ]},
    {"compound": "NGF: Nerve growth factor, the first recognized neurotrophic factor; positive control in PC12 assay", "values": [
      {"measurement": "BBB penetration", "setting": "[7]", "result": "cannot penetrate the BBB"}
    ]}
  ]
}
